In patent US10941169B2, “Crystal of cyclic phosphonic acid sodium salt and method for manufacturing same” (OTSUKA CHEMICAL CO., LTD., priority 2014, dated 2021):
Structures can show the parent of a compound that is named as a salt.

Experiments:
[1] = Stability test at 35° C. (storage, weekly LC purity analysis); assay type: physicochemical; conditions: stored at 35° C.; for purity in stability test, number of days 0: day 0; for purity in stability test, number of days 7: day 7; for purity in stability test, number of days 14: day 14; for purity in stability test, number of days 21: day 21; for purity in stability test, number of days 28: day 28; for stability (assessment in words): results of Table 1; for purity in stability test, number of days 56: day 56
Procedure: As the amorphous of 2ccPA above, 300 mg of 2ccPA (obtained in Example 3) dissolved in 5 mL of water and freeze-dried was used.
In the stability test, about 15 mg each of the 2ccPA crystal of the present invention, the 2ccPA of a formula described in documents, and an amorphous of 2ccPA were weighed, and individually diluted with 5 mL of acetonitrile/water (1/1). Then, 5 μL each of the diluted solutions was analyzed weekly using the LC-2010CHT (Shimazu Corporation).

[2] = Storage stability, hermetically sealed, −20° C. and 35° C. for 3 months; assay type: physicochemical; conditions: stored at −20° C. and 35° C. for 3 months
From the text: The crystal of 2ccPA of the present invention is excellent in storage stability.

[3] = listed as 2ccPA crystal obtained by the production method of the present invention, sodium salt

| Structure (SMILES) | purity in stability test, number of days 0 [1] [%] | purity in stability test, number of days 7 [1] [%] | purity in stability test, number of days 14 [1] [%] | purity in stability test, number of days 21 [1] [%] | purity in stability test, number of days 28 [1] [%] | stability (assessment in words) [1] | storage stability (decrease in purity, decomposition) [2] | purity in stability test, number of days 0 ([1]; sodium salt) [%] | purity in stability test, number of days 7 ([1]; sodium salt) [%] | purity in stability test, number of days 14 ([1]; sodium salt) [%] | purity in stability test, number of days 21 ([1]; sodium salt) [%] | purity in stability test, number of days 28 ([1]; sodium salt) [%] | purity in stability test, number of days 42 ([1]; day 42) [%] | purity in stability test, number of days 56 [1, 3] [%] | purity in stability test, number of days 56 ([1]; sodium salt) [%] | stability (assessment in words) [1, 3] |
| --- | --- | --- | --- | --- | --- | --- | --- | --- | --- | --- | --- | --- | --- | --- | --- | --- |
| CCCCCCCC/C=C\CCCCCCCC(=O)OCC1COP(=O)(O)C1 (stereo not shown) [A formula described in documents, sodium salt of 9-octadecenoic acid (9Z)-(2-hydroxy-2-oxo-2λ^5-1,2-oxaphosphoran-4-yl)methyl ester] | 67.934 | 66.665 | 67.517 | 62.77 | 59.841 | unstable | – | – | – | – | – | – | – | – | – | – |
| CCCCCCCC/C=C\CCCCCCCC(=O)OCC1COP(=O)([O-])C1.[Na+] (stereo not shown) [2ccPA crystal of the present invention, 4-[(Z)-octadec-9-enoyloxymethyl]-2-oxo-1,2-λ^5-oxaphosphorane-2-olate sodium salt] | – | – | – | – | – | – | little decrease in purity | 99.561 | 99.605 | 99.576 | 99.631 | 99.626 | 99.593 | 99.493 | 99.493 | excellent stability |
| CCCCCCCC/C=C\CCCCCCCC(=O)OCC1COP(=O)([O-])C1.[Na+] (stereo not shown) [Amorphous of 2ccPA, sodium salt of 9-octadecenoic acid (9Z)-(2-hydroxy-2-oxo-2λ^5-1,2-oxaphosphoran-4-yl)methyl ester] | 99.599 | 83.363 | 45.02 | 34.738 | 27.077 | unsatisfactory | – | – | – | – | – | – | – | – | – | – |
